In the NIST ThermoML archive (doi:10.1016/j.jct.2018.10.006):
Numbers after ± are expanded uncertainties.

Test: molar heat capacity at constant pressure
Conditions: 101.33 kPa, Crystal 2

O=P([O-])([O-])[O-].[Cs+].[Ni+2] [cesium nickel monophosphate]
Conditions	molar heat capacity at constant pressure [J/K/mol]
160 K, Small (less than 1 g) adiabatic calorimetry	103.68 ± 0.5
162.35 K, Small (less than 1 g) adiabatic calorimetry	104.76 ± 0.58
165.65 K, Small (less than 1 g) adiabatic calorimetry	106.01 ± 0.58
168.95 K, Small (less than 1 g) adiabatic calorimetry	107.84 ± 0.58
170 K, Small (less than 1 g) adiabatic calorimetry	107.84 ± 0.58
172.25 K, Small (less than 1 g) adiabatic calorimetry	108.75 ± 0.58
175.54 K, Small (less than 1 g) adiabatic calorimetry	109.83 ± 0.58
178.83 K, Small (less than 1 g) adiabatic calorimetry	111.5 ± 0.58
180 K, Small (less than 1 g) adiabatic calorimetry	111.83 ± 0.58
182.12 K, Small (less than 1 g) adiabatic calorimetry	112.83 ± 0.58
185.4 K, Small (less than 1 g) adiabatic calorimetry	113.82 ± 0.58
188.67 K, Small (less than 1 g) adiabatic calorimetry	115.24 ± 0.58
190 K, Small (less than 1 g) adiabatic calorimetry	115.4 ± 0.58
191.94 K, Small (less than 1 g) adiabatic calorimetry	116.32 ± 0.58
195.21 K, Small (less than 1 g) adiabatic calorimetry	116.98 ± 0.58
198.48 K, Small (less than 1 g) adiabatic calorimetry	118.07 ± 0.58
200 K, Small (less than 1 g) adiabatic calorimetry	118.73 ± 0.58
201.74 K, Small (less than 1 g) adiabatic calorimetry	119.56 ± 0.58
205 K, Small (less than 1 g) adiabatic calorimetry	120.14 ± 0.58
208.27 K, Small (less than 1 g) adiabatic calorimetry	121.06 ± 0.58
210 K, Small (less than 1 g) adiabatic calorimetry	121.64 ± 0.58
211.53 K, Small (less than 1 g) adiabatic calorimetry	122.14 ± 0.58
214.79 K, Small (less than 1 g) adiabatic calorimetry	122.56 ± 0.58
218.05 K, Small (less than 1 g) adiabatic calorimetry	123.64 ± 0.58
220 K, Small (less than 1 g) adiabatic calorimetry	124.38 ± 0.58
221.32 K, Small (less than 1 g) adiabatic calorimetry	124.22 ± 0.58
224.58 K, Small (less than 1 g) adiabatic calorimetry	125.63 ± 0.67
227.84 K, Small (less than 1 g) adiabatic calorimetry	126.38 ± 0.67
230 K, Small (less than 1 g) adiabatic calorimetry	126.88 ± 0.67
231.11 K, Small (less than 1 g) adiabatic calorimetry	127.13 ± 0.67
234.38 K, Small (less than 1 g) adiabatic calorimetry	128.21 ± 0.67
237.64 K, Small (less than 1 g) adiabatic calorimetry	129.12 ± 0.67
240 K, Small (less than 1 g) adiabatic calorimetry	129.37 ± 0.67
240.88 K, Small (less than 1 g) adiabatic calorimetry	129.62 ± 0.67
244.15 K, Small (less than 1 g) adiabatic calorimetry	130.7 ± 0.67
247.41 K, Small (less than 1 g) adiabatic calorimetry	131.53 ± 0.67
250 K, Small (less than 1 g) adiabatic calorimetry	132.03 ± 0.67
250.68 K, Small (less than 1 g) adiabatic calorimetry	132.28 ± 0.67
253.95 K, Small (less than 1 g) adiabatic calorimetry	133.03 ± 0.67
257.21 K, Small (less than 1 g) adiabatic calorimetry	133.7 ± 0.67
260 K, Small (less than 1 g) adiabatic calorimetry	134.94 ± 0.67
260.47 K, Small (less than 1 g) adiabatic calorimetry	135.11 ± 0.67
263.74 K, Small (less than 1 g) adiabatic calorimetry	135.94 ± 0.67
266.99 K, Small (less than 1 g) adiabatic calorimetry	137.19 ± 0.67
270 K, Small (less than 1 g) adiabatic calorimetry	138.19 ± 0.67
270.25 K, Small (less than 1 g) adiabatic calorimetry	138.69 ± 0.67
273.15 K, Small (less than 1 g) adiabatic calorimetry	139.27 ± 0.67
273.51 K, Small (less than 1 g) adiabatic calorimetry	139.52 ± 0.67
276.77 K, Small (less than 1 g) adiabatic calorimetry	140.43 ± 0.67
280 K, Small (less than 1 g) adiabatic calorimetry	141.68 ± 0.67
280.02 K, Small (less than 1 g) adiabatic calorimetry	141.6 ± 0.67
283.26 K, Small (less than 1 g) adiabatic calorimetry	142.68 ± 0.67
286.51 K, Small (less than 1 g) adiabatic calorimetry	143.84 ± 0.67
289.74 K, Small (less than 1 g) adiabatic calorimetry	145 ± 0.67
290 K, Small (less than 1 g) adiabatic calorimetry	145.42 ± 0.67
292.94 K, Small (less than 1 g) adiabatic calorimetry	146.5 ± 0.75
296.16 K, Small (less than 1 g) adiabatic calorimetry	147.25 ± 0.75
298.15 K, Small (less than 1 g) adiabatic calorimetry	148.41 ± 0.75
299.38 K, Small (less than 1 g) adiabatic calorimetry	148.58 ± 0.75
300 K, Small (less than 1 g) adiabatic calorimetry	149.08 ± 0.75
302.59 K, Small (less than 1 g) adiabatic calorimetry	150.41 ± 0.75
305.8 K, Small (less than 1 g) adiabatic calorimetry	151.41 ± 0.75
309.01 K, Small (less than 1 g) adiabatic calorimetry	152.57 ± 0.75
310 K, Small (less than 1 g) adiabatic calorimetry	152.65 ± 0.75
312.23 K, Small (less than 1 g) adiabatic calorimetry	153.82 ± 0.75
315.44 K, Small (less than 1 g) adiabatic calorimetry	154.82 ± 0.75
318.66 K, Small (less than 1 g) adiabatic calorimetry	155.48 ± 0.75
320 K, Small (less than 1 g) adiabatic calorimetry	155.9 ± 0.75
320.8 K, DSC	155.48 ± 6.7
321.8 K, DSC	156.31 ± 6.7
321.9 K, Small (less than 1 g) adiabatic calorimetry	156.23 ± 0.75
322.8 K, DSC	156.31 ± 6.7
323.8 K, DSC	156.31 ± 6.7
324.8 K, DSC	157.14 ± 6.7
325.15 K, Small (less than 1 g) adiabatic calorimetry	157.39 ± 0.75
325.8 K, DSC	157.14 ± 6.7
326.8 K, DSC	157.97 ± 6.7
327.8 K, DSC	157.97 ± 6.7
328.41 K, Small (less than 1 g) adiabatic calorimetry	158.22 ± 0.75
328.8 K, DSC	158.81 ± 6.7
329.8 K, DSC	158.81 ± 6.7
330 K, Small (less than 1 g) adiabatic calorimetry	158.89 ± 0.75
330.8 K, DSC	159.64 ± 6.7
331.69 K, Small (less than 1 g) adiabatic calorimetry	159.39 ± 0.75
331.8 K, DSC	159.64 ± 6.7
332.8 K, DSC	159.64 ± 6.7
333.8 K, DSC	160.47 ± 6.7
334.8 K, DSC	160.47 ± 6.7
334.97 K, Small (less than 1 g) adiabatic calorimetry	160.3 ± 0.75
335.8 K, DSC	161.3 ± 6.7
336.8 K, DSC	161.3 ± 6.7
337.8 K, DSC	161.3 ± 6.7
338.28 K, Small (less than 1 g) adiabatic calorimetry	161.22 ± 0.75
338.8 K, DSC	162.13 ± 6.7
339.8 K, DSC	162.13 ± 6.7
340 K, Small (less than 1 g) adiabatic calorimetry	161.97 ± 4.1
340.8 K, DSC	162.13 ± 6.7
341.58 K, Small (less than 1 g) adiabatic calorimetry	162.8 ± 0.75
341.8 K, DSC	162.96 ± 7.5
342.8 K, DSC	162.96 ± 7.5
343.8 K, DSC	162.96 ± 7.5
